Publication PMC12196213, “New Insights into the Anticancer Effects and Toxicogenomic Safety of Two β-Lapachone Derivatives” (Pharmaceuticals, 2025)
“And” between values parts separate entries of the source, which are not always exact repeats. Identical values can stand only once.

Columns and labels:
[1] = test system: polychromatic erythrocytes (PCE) from Swiss mice; assay: Micronucleus assay in vivo; set-up: species or system Mus musculus; conditions: intraperitoneally, 500, 1000 and 2000 mg/kg, blood 48 h after administration
Procedure: Forty female Mus musculus mice (Swiss strain) were used. The animals were divided into 8 groups, with 5 animals each: G1—negative control (NC) treated with the vehicle solution intraperitoneally; G2—positive control (PC) treated intraperitoneally with cyclophosphamide at a dose of 30 mg/kg; groups exposed to the BV3 derivative—Group BV3—I intraperitoneally at doses of 2000 mg/kg; Group BV3—II 1000 mg/kg; Group BV3—III 500 mg/kg; and groups exposed to BV5—Group BV5—I, received BV5 intraperitoneally at doses of 2000 mg/kg; Group BV5—II 1000 mg/kg; and Group BV5—III 500 mg/kg. For the comet assay, approximately 0.5 mL of blood from each animal was collected via the tail vein 6–8 h after administration of the compounds. For the micronucleus test, 1 mL of blood from each animal was collected by cardiac puncture 48 h after administration of the compounds. For that collection, the mice were anesthetized with ketamine (100 mg/kg) and xylazine (10 mg/kg), intraperitoneally. […]
The same mice from the comet test (females n = 40) were used, equally with the 8 experimental groups mentioned above. […] Two slides were prepared per animal, in which 2000 polychromatic erythrocytes (PCE) were analyzed for the presence of micronuclei. The analysis was carried out using a Zeiss Axio Imager M2 fluorescence microscope, with a 40× objective and Alexa Fluor 488 filter (Carl Zeiss AG™, Germany).

[2] = test system: HeLa (human cervical adenocarcinoma); assay: MTT cytotoxicity assay, HeLa; assay type: cell-based; conditions: for IC50: Homo sapiens, HeLa, MTT; for selectivity index (SI): IC50 L929 / IC50 HeLa
Procedure: (§1) To assess the cytotoxicity of the compounds, the MTT [3-(4,5-dimethylthiazol-2-yl)-2,5-diphenyltetrazolium bromide] assay was employed. The cells (2 × 10^5/mL) were incubated with the substances at concentrations ranging from 0.78 to 25 µg/mL. β-lap was used as a positive control. After 24, 48, or 72 h of incubation, MTT was added at a concentration of 5 mg/mL. Cell viability in different treatments was compared to the negative control using the following formula: Cell viability%=mean absorbance of treated samples/mean absorbance of negative control×100 The IC50 (the concentration that inhibits 50% of cell growth compared to the negative control) was calculated using nonlinear regression in GraphPad Prism 8.0 for Windows (GraphPad Demo Software, San Diego, CA, USA). Experiments were performed in triplicate and in two independent experiments. The protocol is also described in other previous publications. The IC50 of normal and cancer cells was used to calculate the SI of compounds BV3 and BV5. The SI indicated the selectivity of the compounds among the normal cell line (L-929) and a cancer cell line (HCT-116, MDA-MB-231, HepG2, or HeLa). SI is a crucial parameter for therapeutic applications in upcoming clinical trials. Therefore, the following formula was used to calculate SI: SI=IC50(normal cell line)/IC50(cancer cell line)

[3] = test system: L929 (murine fibroblasts); assay: MTT cytotoxicity assay, L929; assay type: cell-based; conditions: Mus musculus, L929, 72 h
Procedure: as §1, with “publications.” for “publications. The IC50 of normal and cancer cells was used to calculate the SI of compounds BV3 and BV5. The SI indicated the selectivity of the compounds among the normal cell line (L-929) and a cancer cell line (HCT-116, MDA-MB-231, HepG2, or HeLa). SI is a crucial parameter for therapeutic applications in upcoming clinical trials. Therefore, the following formula was used to calculate SI: SI=IC50(normal cell line)/IC50(cancer cell line)”

[4] = test system: HeLa cells; assay: Morphological analysis, rapid panoptic staining; assay type: cell-based, human; conditions: 72 h, at IC50 and 2 × IC50
Procedure: Following the screening of IC50 values and SI in solid tumor cells, indications of potential cell death were explored in the most sensitive cell line. The morphological changes were evaluated according to protocols previously published with modifications. Thus, HeLa cells were seeded in 12-well plates at a concentration of 4 × 10^5 cells/mL and incubated overnight for adhesion. […] After the treatment period, the medium was aspirated, and the plate was washed twice with PBS. The cells were fixed and stained using the Panoptic Rapid Kit following the manufacturer’s protocol. Morphological analyses were conducted to observe cellular alterations indicative of cell death, including cellular volume reduction, membrane integrity, karyolysis, pyknosis, karyorrhexis, apoptotic bodies, vacuoles, and cellular debris.

SMILES	number of micronuclei compared to negative control [1]	IC50 ([2]; 24 h) [µM]	IC50 ([2]; 48 h) [µM]	IC50 ([2]; 72 h) [µM]	IC50 [3] [µM]	morphological changes [4]	selectivity index (SI) ([2]; 72 h)
Cc1ccc(NC(=S)N/N=C2\C(=O)C3=C(OC(C)(C)CC3)c3ccccc32)cc1 [BV5, 2-(2,2-dimethyl-5-oxo-3,4-dihydro-2H-benzo[h]chromen-6(5H)-ylidene)-N-(p-tolyl)-thiocarbohydrazide]	no differences	> 61	24.5	17.8	13.1	loss of membrane integrity, reduced cellular volume, presence of fragmented/pyknotic nuclei, chromatin condensation, and cellular debris	
CC1(C)CCC2=C(O1)c1ccccc1/C(=N/NC(=S)Nc1ccc([N+](=O)[O-])cc1)C2=O [BV3, 2-(2,2-dimethyl-5-oxo-3,4-dihydro-2H-benzo[h]chromen-6(5H)-ylidene)-N-(4nitrophen-yl)thio-carbohydrazide]	no differences	> 57	23.5	2.81	44	reduced cellular volume, cells with condensed chromatin, and cellular debris	15.6
CC1(C)CCC2=C(O1)c1ccccc1C(=O)C2=O [β-lap, β-Lapachone]		10.7	8.87	2.39	4.54		1.89 and 1.9
